Test results published in patent publication US5962314A, “Calcium receptor-active molecules” (priority 1997, dated 1999).
“Also recorded” adds a separate entry of the source.

Key:
PTH = PTH levels in rats; format: in vivo, rat; conditions: NPS R-568 oral, rats
Text: The fall in blood Ca^2+ at this time was paralleled by a proportional fall in the levels of blood total calcium.

serum ionized calcium [1] = test: serum ionized Ca2+ in parathyroidectomized rats; format: in vivo, rat; conditions: NPS R-467 10 mg/kg i.p., 6 hours; NPS R-568 oral
Text: To determine the primary target tissue upon which NPS R-467 acts to cause a hypocalcemic response, the parathyroid glands in rats were surgically removed. Animals receiving a total parathyroidectomy become hypocalcemic and are largely dependent upon dietary calcium to maintain serum Ca^2+ homeostasis.

[2] = system: serum parathyroid hormone; test: serum PTH in a human; format: in vivo; conditions: single oral doses
Text: (§1) A range of single oral doses was used to assess safety, tolerance, and changes in primary hyperparathyroidism markers (e.g., plasma concentrations of parathyroid hormone and ionized serum calcium) and of serum calcitonin.

serum ionized calcium [3] = test: serum ionized calcium in a human; format: in vivo; conditions: higher single oral doses
Text: as §1

serum calcitonin = serum calcitonin in a human; format: in vivo; conditions: single oral doses studied
Text: as §1

serum calcium = test: hypocalcemic response in thyroidectomized rats; format: in vivo, rat; conditions: 3 to 100 mg/kg p.o.
Text: In subsequent studies, rats received a thyroidectomy (parathyroid glands intact). This surgical procedure effectively removed the C-cells secreting calcitonin and therefore enabled the relative contributions of PTH and calcitonin to the hypocalcemic effect of this compound to be determined. […] The only difference was that the rate of onset of the hypqcalcemic response was somewhat delayed in thyroidectomized animals. […] Stimulatory effects of this compound on calcitonin secretion increases the rate of onset, but not the extent, of hypocalcemia.

[4] = target: T1, parathyroid cell calcium receptor (Homo sapiens, UniProt P41180); test: mobilization of intracellular Ca2+ in human parathyroid cells; format: cell-based; conditions: neomycin B 10 or 20 μM, spermine 300 μM, Mg2+ 10 mM
T1 construct: Dissociated parathyroid cells were prepared from a parathyroid adenoma obtained by surgery from a patient with primary hyperparathyroidism; endogenous in cells; host or cells: human parathyroid cells (adenoma or hyperplastic glands from patients)
T1 sequence (P41180 20-1078): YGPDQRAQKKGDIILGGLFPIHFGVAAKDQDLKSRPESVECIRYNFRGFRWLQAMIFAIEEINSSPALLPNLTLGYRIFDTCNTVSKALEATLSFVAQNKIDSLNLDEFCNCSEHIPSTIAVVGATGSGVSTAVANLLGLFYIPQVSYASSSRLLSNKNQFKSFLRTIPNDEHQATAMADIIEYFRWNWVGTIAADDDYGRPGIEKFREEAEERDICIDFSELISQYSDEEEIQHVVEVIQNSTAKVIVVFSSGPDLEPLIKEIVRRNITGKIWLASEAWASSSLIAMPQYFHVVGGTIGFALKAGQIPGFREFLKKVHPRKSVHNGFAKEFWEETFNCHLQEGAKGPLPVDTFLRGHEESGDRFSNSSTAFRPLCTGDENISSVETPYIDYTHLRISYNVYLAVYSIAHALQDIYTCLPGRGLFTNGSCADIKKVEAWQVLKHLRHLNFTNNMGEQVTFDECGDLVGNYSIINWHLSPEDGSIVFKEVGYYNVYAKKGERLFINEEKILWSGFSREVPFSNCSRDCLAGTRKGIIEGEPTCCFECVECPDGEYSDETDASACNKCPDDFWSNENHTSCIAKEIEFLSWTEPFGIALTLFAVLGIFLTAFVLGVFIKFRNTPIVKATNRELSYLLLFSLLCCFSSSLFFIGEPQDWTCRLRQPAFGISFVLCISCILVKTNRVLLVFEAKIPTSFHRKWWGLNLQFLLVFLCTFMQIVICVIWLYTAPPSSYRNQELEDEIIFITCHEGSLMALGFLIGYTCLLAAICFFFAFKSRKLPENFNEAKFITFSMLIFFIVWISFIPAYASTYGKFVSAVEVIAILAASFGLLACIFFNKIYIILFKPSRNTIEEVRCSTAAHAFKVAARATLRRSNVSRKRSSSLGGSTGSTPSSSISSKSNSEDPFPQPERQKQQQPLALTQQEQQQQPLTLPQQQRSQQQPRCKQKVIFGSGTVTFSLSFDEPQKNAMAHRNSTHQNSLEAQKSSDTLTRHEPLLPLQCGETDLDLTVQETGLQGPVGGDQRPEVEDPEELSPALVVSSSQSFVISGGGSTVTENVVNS
Experimental: Human parathyroid glands, were obtained from patients undergoing surgical removal of parathyroid tissue for primary or uremic hyperparathyroidism (uremic HPT), and were treated similarly to bovine tissue.
The cells were then pelleted, resuspended in the same buffer, but lacking the ester, and incubated a further 15 minutes at 37° C. The cells were subsequently washed twice with PCB containing 0.5 mM CaCl2 and 0.5% BSA and maintained at room temperature (about 20° C.). Immediately before use, the cells were diluted five-fold with prewarmed 0.5 mM CaCl2 -PCB to obtain a final BSA concentration of 0.1%. The concentration of cells in the cuvette used for fluorescence recording was 1-2×10^6 /ml.

bovine parathyroid cells = test: PTH secretion from bovine parathyroid cells; format: cell-based; conditions: bovine parathyroid cells
human parathyroid cells = test: PTH secretion from human parathyroid cells; format: cell-based; conditions: human (adenoma) parathyroid cells
Experimental: PTH secretion was measured by first suspending cells in PCB containing 0.5 mM CaCl2 and 0.1% BSA.
For human cells, a commercially available radioimmunoassay kit (INS-PTH; Nichols Institute, Los Angeles, Calif.) which recognizes intact and N-terminal human PTH was used because GW-1 antibody recognizes human PTH poorly.

cyclic AMP = format: cell-based, bovine
Experimental: Cells were incubated as above for PTH secretion studies and at the end of the incubation, a 0.15-ml sample was taken and transferred to 0.85 ml of hot (70° C.) water and heated at this temperature for 5-10 minutes. The tubes were subsequently frozen and thawed several times and the cellular debris sedimented by centrifugation. Portions of the supernatant were acetylated and cyclic AMP concentrations determined by radioimmunoassay.
Each value is the mean±SEM of three experiments.

calcium receptor = target: T2, calcium receptor (Homo sapiens, UniProt P41180); test: Xenopus oocytes injected with human parathyroid cell mRNA; format: cell-based; conditions: for effect on Cl- current: oocytes injected with human parathyroid mRNA; for effect in water-injected oocytes: neomycin B 10 mM
T2 sequence (P41180 20-1078): T1 sequence (P41180 20-1078)
Experimental: Oocytes were injected with poly(A)^+ -enriched mRNA from human parathyroid tissue (hyperplastic glands from a case of secondary HPT).
Following incubation, an oocyte was placed into a 100-μl plastic chamber and superfused with MBS at a flow rate of 0.5 ml/min using a peristaltic pump. Test molecules or inorganic polycations were added by rapidly moving the tubing into different buffers. Recording and current-passing electrodes were constructed from thin-wall capillary tubing pulled to a resistance of 1-3 Mohms and filled with 3 M KCl. […] Currents were recorded directly onto a strip chart recorder.
Using this screen allows one to test for an action directly on the calcium receptor. Oocytes expressing the calcium receptor also responded to several molecules active on intact parathyroid cells when screened as follows. […] This offers rather compelling evidence showing that these molecules act on the calcium receptor or on some other protein intimately associated with its function.

Structure (SMILES) | effect on PTH, oral (PTH) | effect on serum ionized Ca2+ in parathyroidectomized rats (serum ionized calcium [1]) | effect on plasma PTH in human [2] | effect on serum ionized calcium in human (serum ionized calcium [3]) | effect on serum calcitonin in human (serum calcitonin) | hypocalcemic response in thyroidectomized rats (serum calcium) | effect on [Ca2+]i in human parathyroid cells [4] | effect on [Ca2+]i in human parathyroid cells ([4]; listed as Neomycin B) | effect on [Ca2+]i in human parathyroid cells ([4]; listed as neomycin B) | effect on PTH secretion (bovine parathyroid cells) | effect on PTH secretion (human parathyroid cells; listed as Neomycin B) | effect on PTH secretion (human parathyroid cells; listed as neomycin B) | effect on isoproterenol-induced increases in cyclic AMP (cyclic AMP) | mobilization of intracellular Ca2+ in oocytes (calcium receptor; hexacyclen 135 μM, neomycin 100 μM, NPS 382 5 mM) | effect on Cl- current (calcium receptor; listed as Neomycin B) | effect on Cl- current (calcium receptor; listed as neomycin B) | effect in water-injected oocytes (calcium receptor; listed as Neomycin B) | effect in water-injected oocytes (calcium receptor; listed as neomycin B)
COc1cccc([C@@H](C)NCCCc2ccccc2Cl)c1 [NPS R-568, (R)-(+)-N-[3-(2-chlorophenyl)propyl]-α-methyl-3-methoxybenzylamine] | rapid, dose-dependent decrease in the plasma levels of PTH; also recorded: decreases in the levels of serum PTH | fails to elicit a hypocalcemic response | transient dose-dependent decrease in plasma PTH concentration | decrease in serum ionized calcium concentration | no apparent change in serum calcitonin | hypocalcemic response equal in magnitude to that produced in sham-operated animals | – | – | – | – | – | – | – | – | – | – | – | –
NC[C@@H]1O[C@H](O[C@H]2[C@@H](O)[C@H](O[C@@H]3[C@@H](O)[C@H](N)C[C@H](N)[C@H]3O[C@H]3O[C@H](CN)[C@@H](O)[C@H](O)[C@H]3N)O[C@@H]2CO)[C@H](N)[C@@H](O)[C@@H]1O [Neomycin] | – | – | – | – | – | – | large increase in [Ca^2+ ]i | not only a transient, but additionally a steady-state increase in [Ca^2+ ]i | transient and sustained increases in [Ca^2+ ]i | inhibited PTH secretion to the same extent as extracellular Ca^2+ | inhibited PTH secretion from human parathyroid cells | inhibit PTH secretion | depressed isoproterenol-induced increases in cyclic AMP | also effective | evoked oscillatory increases in the Cl^- | evokes oscillating increases in the Cl^- | failed to elicit a response in five water-injected oocytes | failed to cause any change in the current
